Reference: PubChem BioAssay (NCI)
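Here, GI50 denotes the concentration required for 50% inhibition of growth. TGI is the concentration that stops growth completely.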

Key:
Test in all cases: NCI tumour cell line growth inhibition, 384-well format
BT-549 breast = system: BT-549 breast
NCI-H322M lung = system: NCI-H322M lung
MDA-MB-435 melanoma = system: MDA-MB-435 melanoma
UACC-62 melanoma = system: UACC-62 melanoma
HCT-15 colon = system: HCT-15 colon
MCF7 breast = system: MCF7 breast
PC-3 prostate = system: PC-3 prostate
HCC-2998 colon = system: HCC-2998 colon
SNB-19 CNS = system: SNB-19 CNS
RPMI-8226 leukemia = system: RPMI-8226 leukemia
HOP-92 NSCLC = system: HOP-92 NSCLC
K-562 leukemia = system: K-562 leukemia
LOX IMVI melanoma = system: LOX IMVI melanoma
A549 NSCLC = system: A549 NSCLC
KM12 colon = system: KM12 colon
TK-10 renal = system: TK-10 renal
HL-60(TB) leukemia = system: HL-60(TB) leukemia
SK-MEL-28 melanoma = system: SK-MEL-28 melanoma
NCI-H23 lung = system: NCI-H23 lung
SF-539 CNS = system: SF-539 CNS
SW-620 colon = system: SW-620 colon
CAKI-1 renal = system: CAKI-1 renal
NCI-H522 lung = system: NCI-H522 lung
SK-OV-3 ovarian = system: SK-OV-3 ovarian
SK-MEL-5 melanoma = system: SK-MEL-5 melanoma
HOP-62 NSCLC = system: HOP-62 NSCLC
SF-268 CNS = system: SF-268 CNS
T-47D breast = system: T-47D breast
DU-145 prostate = system: DU-145 prostate
UO-31 renal = system: UO-31 renal
MDA-MB-468 breast = system: MDA-MB-468 breast
OVCAR-8 ovarian = system: OVCAR-8 ovarian
U251 glioblastoma = system: U251 glioblastoma
NCI-H226 lung = system: NCI-H226 lung
NCI/ADR-RES ovarian = system: NCI/ADR-RES ovarian
SF-295 CNS = system: SF-295 CNS
M14 melanoma = system: M14 melanoma
ACHN renal = system: ACHN renal
MDA-MB-231 breast = system: MDA-MB-231 breast
SNB-75 CNS = system: SNB-75 CNS
NCI-H460 NSCLC = system: NCI-H460 NSCLC
IGROV1 ovarian = system: IGROV1 ovarian
OVCAR-4 ovarian = system: OVCAR-4 ovarian
UACC-257 melanoma = system: UACC-257 melanoma
786-0 renal = system: 786-0 renal
SN12C renal = system: SN12C renal
COLO 205 colon = system: COLO 205 colon
OVCAR-3 ovarian = system: OVCAR-3 ovarian
EKVX NSCLC = system: EKVX NSCLC
HT29 colon = system: HT29 colon
A498 renal = system: A498 renal
SR leukemia = system: SR leukemia
CCRF-CEM leukemia = system: CCRF-CEM leukemia
MALME-3M melanoma = system: MALME-3M melanoma
MOLT-4 leukemia = system: MOLT-4 leukemia
OVCAR-5 ovarian = system: OVCAR-5 ovarian
RXF 393 renal = system: RXF 393 renal
HS 578T breast = system: HS 578T breast

## Cc1c(CN2CCN(C(=O)[C@H](C)O)CC2)sc2c(N3CCOCC3)nc(-c3cnc(N)nc3)nc12
BT-549 breast
  GI50: 197 nM
  TGI: 922 nM
NCI-H322M lung
  GI50: 244 nM
  TGI: 6600 nM
MDA-MB-435 melanoma
  GI50: 230 nM
  TGI: 1530 nM
UACC-62 melanoma
  GI50: 211 nM
  TGI: 1200 nM
HCT-15 colon
  GI50: 198 nM
  TGI: > 100000 nM
MCF7 breast
  GI50: 48.5 nM
  TGI: > 100000 nM
PC-3 prostate
  GI50: 149 nM
  TGI: 2430 nM
HCC-2998 colon
  GI50: 404 nM
  TGI: 14700 nM
SNB-19 CNS
  GI50: 2490 nM
  TGI: > 100000 nM
RPMI-8226 leukemia
  GI50: 54.4 nM
  TGI: 200 nM
HOP-92 NSCLC
  GI50: 84.9 nM
  TGI: 446 nM
K-562 leukemia
  GI50: 943 nM
  TGI: > 100000 nM
LOX IMVI melanoma
  GI50: 239 nM
  TGI: 1130 nM
A549 NSCLC
  GI50: 261 nM
  TGI: 2600 nM
KM12 colon
  GI50: 354 nM
  TGI: 6970 nM
TK-10 renal
  GI50: 223 nM
  TGI: 1380 nM
HL-60(TB) leukemia
  GI50: 121 nM
  TGI: 577 nM
SK-MEL-28 melanoma
  GI50: 154 nM
  TGI: 719 nM
NCI-H23 lung
  GI50: 179 nM
  TGI: 5800 nM
SF-539 CNS
  GI50: 300 nM
  TGI: 3070 nM
SW-620 colon
  GI50: 594 nM
  TGI: > 100000 nM
CAKI-1 renal
  GI50: 197 nM
  TGI: 2820 nM
NCI-H522 lung
  GI50: 208 nM
  TGI: 974 nM
SK-OV-3 ovarian
  GI50: 133 nM
  TGI: 448 nM
SK-MEL-5 melanoma
  GI50: 119 nM
  TGI: 386 nM
HOP-62 NSCLC
  GI50: 292 nM
  TGI: 2920 nM
SF-268 CNS
  GI50: 386 nM
  TGI: 16600 nM
T-47D breast
  GI50: 25.9 nM
  TGI: 110 nM
DU-145 prostate
  GI50: 272 nM
  TGI: 4100 nM
UO-31 renal
  GI50: 295 nM
  TGI: > 100000 nM
MDA-MB-468 breast
  GI50: 97.6 nM
  TGI: 352 nM
OVCAR-8 ovarian
  GI50: 333 nM
  TGI: > 100000 nM
U251 glioblastoma
  GI50: 1060 nM
  TGI: > 100000 nM
NCI-H226 lung
  GI50: 158 nM
  TGI: 784 nM
NCI/ADR-RES ovarian
  GI50: 651 nM
  TGI: > 100000 nM
SF-295 CNS
  GI50: 148 nM
  TGI: 695 nM
M14 melanoma
  GI50: 228 nM
  TGI: 3710 nM
ACHN renal
  GI50: 193 nM
  TGI: 1150 nM
MDA-MB-231 breast
  GI50: 290 nM
  TGI: > 100000 nM
SNB-75 CNS
  GI50: 143 nM
  TGI: 775 nM
NCI-H460 NSCLC
  GI50: 78.6 nM
  TGI: > 100000 nM
IGROV1 ovarian
  GI50: 41.6 nM
  TGI: 192 nM
OVCAR-4 ovarian
  GI50: 128 nM
  TGI: 726 nM
UACC-257 melanoma
  GI50: 185 nM
  TGI: 884 nM
786-0 renal
  GI50: 350 nM
  TGI: 2860 nM
SN12C renal
  GI50: 148 nM
  TGI: 694 nM
COLO 205 colon
  GI50: 208 nM
  TGI: 1370 nM
OVCAR-3 ovarian
  GI50: 211 nM
  TGI: 1740 nM
EKVX NSCLC
  GI50: 173 nM
  TGI: 1010 nM
HT29 colon
  GI50: 246 nM
  TGI: > 100000 nM
A498 renal
  GI50: 88.2 nM
  TGI: 473 nM
SR leukemia
  GI50: 176 nM
  TGI: 609 nM
CCRF-CEM leukemia
  GI50: 361 nM
  TGI: 1920 nM
MALME-3M melanoma
  GI50: 51 nM
  TGI: 286 nM
MOLT-4 leukemia
  GI50: 97.5 nM
  TGI: 282 nM
OVCAR-5 ovarian
  GI50: 137 nM
  TGI: 823 nM
RXF 393 renal
  GI50: 352 nM
  TGI: 2330 nM
HS 578T breast
  GI50: 139 nM
  TGI: 419 nM
